Test results from patent publication US10647700B2, “EZH2 inhibitor and use thereof” (TARAPEUTICS SCIENCE INC., priority 2017, dated 2020).

Target: EZH2 (Homo sapiens (Human), UniProt Q15910)
Assay: E-cadherin promoter luciferase reporter gene primary screening in 293T cells
Assay type: cell-based
Details: 293T cells treated for 24 hours, Dual-Glo luciferase; for 1 μM relative fluorescence intensity: compound 1 μM; for 3 μM relative fluorescence intensity: compound 3 μM; for 10 μM relative fluorescence intensity: compound 10 μM
From the text: EZH2 suppresses the expression of downstream E-cadherin, and upon EZH2 suppression, expression of E-cadherin will increase. Based on such principle, a reporter gene expression vector was constructed using luciferase.
The amplified fragments after PCR and the PGL4.1 vector (purchased from TAKARA, Japan) were respectively subjected to enzyme digestion with SacI and BglII (purchased from TAKARA, Japan), and then purified with PCR cleanup kit (Axygen PCR cleanup kit). Subsequently, the purified and enzyme-digested PCR products was ligated to the purified and enzyme-digested PGL4.1 vector using ligase solution I (DNA Ligation Kit Ver.2.1, purchased from TAKARA, Japan), and subjected to transformation. Single clones were then screened out and subjected to sequencing, and the obtained positive plasmid containing promoter fragments of Ecadherin was named E-cadherin RE-PGL4.1.
Meanwhile, a Renilla fluorescent vector was constructed using PCDNA4.1 (purchased from Thermofisher, USA) as the template to amplify the fragment of CMV promoter. After enzymatic digestion of the amplified CMV sequences and pGL4.70 vector (purchased from Promega, USA) with KpnI and XhoI (purchased from Promega, USA), purification was conducted with PCR cleanup kit (Axygen PCR cleanup kit). Then the enzyme-digested PCR product was ligated to the enzyme-digested PGL4.70 vector using ligase solution I (DNA Ligation Kit Ver.2.1, purchased from TAKARA, Japan) and the resultant was subjected to transformation. Subsequently single clones were screened and subjected to sequencing, and the obtained plasmid that contained CMV sequence was named as Plasmid Renilla luciferase-pGL4.70. Said plasmid utilized CMV promoter to achieve high expression of Renilla luciferase, which served as the control fluorescence for the primary screening system.
The cells were firstly added with 20 μL Dual-Glo® Luciferase Assay Reagent, then incubated under room temperature for 10 minutes, and read on microplate reader Spectramax i3 (Molecular Devices, USA) to obtain the data of primary screening, which is shown in Table 1.

Chain of EZH2 (Q15910 whole entry): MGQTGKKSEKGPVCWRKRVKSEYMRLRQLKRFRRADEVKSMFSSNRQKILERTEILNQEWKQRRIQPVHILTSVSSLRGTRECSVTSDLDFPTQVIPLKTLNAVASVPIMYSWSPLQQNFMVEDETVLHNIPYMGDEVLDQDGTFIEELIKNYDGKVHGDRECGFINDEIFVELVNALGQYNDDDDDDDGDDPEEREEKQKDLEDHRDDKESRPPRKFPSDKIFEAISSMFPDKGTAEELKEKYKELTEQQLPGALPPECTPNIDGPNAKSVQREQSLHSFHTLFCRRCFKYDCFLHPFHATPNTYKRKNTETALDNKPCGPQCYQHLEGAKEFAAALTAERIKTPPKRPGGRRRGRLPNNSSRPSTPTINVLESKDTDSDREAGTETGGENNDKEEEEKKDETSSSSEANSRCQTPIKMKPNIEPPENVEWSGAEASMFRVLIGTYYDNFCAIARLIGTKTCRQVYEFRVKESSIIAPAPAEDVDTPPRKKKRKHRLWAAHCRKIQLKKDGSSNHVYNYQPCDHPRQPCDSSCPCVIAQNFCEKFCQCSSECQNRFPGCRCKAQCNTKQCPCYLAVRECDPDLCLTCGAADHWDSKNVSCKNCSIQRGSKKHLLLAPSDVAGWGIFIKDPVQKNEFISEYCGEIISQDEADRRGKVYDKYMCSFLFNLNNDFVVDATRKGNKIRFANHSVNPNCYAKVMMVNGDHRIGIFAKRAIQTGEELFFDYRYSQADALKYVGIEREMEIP
Chain of EZH2 (O75530 whole entry partner): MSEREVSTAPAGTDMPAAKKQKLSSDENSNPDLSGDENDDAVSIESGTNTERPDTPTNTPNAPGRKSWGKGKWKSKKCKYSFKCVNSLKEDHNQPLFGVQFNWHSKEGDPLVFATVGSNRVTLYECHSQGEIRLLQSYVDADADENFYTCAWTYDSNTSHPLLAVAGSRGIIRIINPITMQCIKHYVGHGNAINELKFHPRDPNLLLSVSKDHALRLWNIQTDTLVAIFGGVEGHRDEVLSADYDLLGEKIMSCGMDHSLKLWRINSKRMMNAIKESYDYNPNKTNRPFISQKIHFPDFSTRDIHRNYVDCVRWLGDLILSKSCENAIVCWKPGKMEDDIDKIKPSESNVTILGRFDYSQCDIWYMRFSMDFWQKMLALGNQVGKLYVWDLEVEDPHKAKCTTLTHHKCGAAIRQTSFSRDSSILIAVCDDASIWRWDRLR
Chain of EZH2 (Q15022 whole entry partner): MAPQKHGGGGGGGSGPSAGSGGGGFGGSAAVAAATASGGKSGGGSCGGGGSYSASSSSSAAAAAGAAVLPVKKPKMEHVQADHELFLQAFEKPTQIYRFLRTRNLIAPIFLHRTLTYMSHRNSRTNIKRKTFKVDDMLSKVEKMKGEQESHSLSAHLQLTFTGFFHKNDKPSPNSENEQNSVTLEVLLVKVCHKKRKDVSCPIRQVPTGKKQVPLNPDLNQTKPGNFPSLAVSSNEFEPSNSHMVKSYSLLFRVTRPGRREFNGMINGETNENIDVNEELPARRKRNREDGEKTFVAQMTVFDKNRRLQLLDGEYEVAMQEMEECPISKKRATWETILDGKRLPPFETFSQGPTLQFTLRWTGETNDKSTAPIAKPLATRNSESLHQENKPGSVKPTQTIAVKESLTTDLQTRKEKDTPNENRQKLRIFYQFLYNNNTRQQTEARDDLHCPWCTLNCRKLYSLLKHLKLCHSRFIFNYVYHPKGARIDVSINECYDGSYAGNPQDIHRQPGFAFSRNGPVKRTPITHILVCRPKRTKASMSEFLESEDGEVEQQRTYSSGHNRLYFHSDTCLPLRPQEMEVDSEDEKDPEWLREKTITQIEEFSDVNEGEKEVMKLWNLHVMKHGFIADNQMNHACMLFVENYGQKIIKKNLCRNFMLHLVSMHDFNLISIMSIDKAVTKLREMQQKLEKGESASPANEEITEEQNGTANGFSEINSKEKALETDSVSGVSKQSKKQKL
Chain of EZH2 (Q09028 whole entry partner): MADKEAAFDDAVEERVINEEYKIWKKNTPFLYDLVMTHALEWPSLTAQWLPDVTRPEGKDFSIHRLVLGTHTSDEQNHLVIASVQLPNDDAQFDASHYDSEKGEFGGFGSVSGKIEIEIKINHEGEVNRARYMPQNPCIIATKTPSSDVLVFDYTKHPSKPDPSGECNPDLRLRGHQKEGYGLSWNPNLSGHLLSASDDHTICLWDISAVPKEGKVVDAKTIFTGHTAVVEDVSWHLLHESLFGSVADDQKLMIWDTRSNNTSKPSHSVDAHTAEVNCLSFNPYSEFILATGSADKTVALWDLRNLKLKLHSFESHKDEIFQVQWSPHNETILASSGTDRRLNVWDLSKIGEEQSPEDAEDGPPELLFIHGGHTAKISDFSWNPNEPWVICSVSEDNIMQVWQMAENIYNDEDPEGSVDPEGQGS

In the case of CCN1CCN(Cc2ccc(-c3cc(C(=O)NCc4c(C)cc(C)[nH]c4=O)c(C)c(N(CC)C(=O)C4CCCC4)c3)cc2)CC1 [Compound 23, N-((4,6-dimethyl-2-oxo-1,2-dihydropyridin-3-yl)methyl)-5-(N-ethylcyclopentanecarboxamido)-4′-((4-ethylpiperazin-1-yl)methyl)-4-methyl-[1,1′-diphenyl]-3-carboxamide], the “1 μM relative fluorescence intensity” value is reported as 290, the “3 μM relative fluorescence intensity” value is reported as 346 and the “10 μM relative fluorescence intensity” value is reported as 343.

For CCN(C(=O)C1CCCC1)c1cc(-c2ccc(N3CCN(CC4CC4)CC3)nc2)cc(C(=O)NCc2c(C)cc(C)[nH]c2=O)c1C [Compound 15, 5-(6-(4-(cyclopropylmethyl)piperazin-1-yl)pyridin-3-yl)-N-((4,6-dimethyl-2-oxo-1,2-dihydropyridin-3-yl)methyl)-3-(N-ethylcyclopentanecarboxamido)-2-methylbenzamide], the “1 μM relative fluorescence intensity” value was 262.61 and the “10 μM relative fluorescence intensity” value was 335.61.

CCN(C(=O)C1CCCC1)c1cc(-c2ccc(N3CCN(C)CC3)nc2)cc(C(=O)NCc2c(C)cc(C)[nH]c2=O)c1C [Compound 36, N-((4,6-dimethyl-2-oxo-1,2-dihydropyridin-3-yl)methyl)-3-(N-ethylcyclopentanecarboxamido)-2-methyl-5-(6-(4-methylpiperazin-1-yl)pyridin-3-yl)benzamide] was tested, and the “1 μM relative fluorescence intensity” value was 211.26 and the “10 μM relative fluorescence intensity” value was 312.36.

CCN1CCN(c2ccc(-c3cc(C(=O)NCc4c(C)cc(C)[nH]c4=O)c(C)c(N(CC)C(=O)C4CCCC4)c3)cc2)CC1 [Compound 27, N-((4,6-dimethyl-2-oxo-1,2-dihydropyridin-3-yl)methyl)-5-(N-ethylcyclopentanecarboxamido)-4′-(4-ethylpiperazin-1-yl)-4-methyl-[1,1′-diphenyl]-3-carboxamide] was tested, and the “1 μM relative fluorescence intensity” value was 204.86 and the “10 μM relative fluorescence intensity” value was 335.96.

For CCN(C(=O)C1CCCC1)c1cc(-c2ccc(CC(=O)N3CCOCC3)cc2)cc(C(=O)NCc2c(C)cc(C)[nH]c2=O)c1C [Compound 22, N-((4,6-dimethyl-2-oxo-1,2-dihydropyridin-3-yl)methyl)-5-(N-ethylcyclopentanecarboxamido)-4-methyl-4′-(2-morpholinyl-2-oxoethyl)-[1,1′-diphenyl]-3-carboxamide], the “1 μM relative fluorescence intensity” value was 171, the “3 μM relative fluorescence intensity” value was 194 and the “10 μM relative fluorescence intensity” value was 242.

With CCN(C(=O)C1CCCC1)c1cc(-c2ccc(N3CCOCC3)cc2)cc(C(=O)NCc2c(C)cc(C)[nH]c2=O)c1C [Compound 21, N-((4,6-dimethyl-2-oxo-1,2-dihydropyridin-3-yl)methyl)-5-(N-ethylcyclopentanecarboxamido)-4-methyl-4′-morpholinyl-[1,1′-diphenyl]-3-carboxamide] the “1 μM relative fluorescence intensity” value was 170, the “3 μM relative fluorescence intensity” value was 225 and the “10 μM relative fluorescence intensity” value was 339.

With CCN(C(=O)C1CCCC1)c1cc(C(N)=O)cc(C(=O)NCc2c(C)cc(C)[nH]c2=O)c1C [Compound 34, N^1-((4,6-dimethyl-2-oxo-1,2-dihydropyridin-3-yl)methyl)-5-(N-ethylcyclopentanecarboxamido)-6-methyl-isophthalamide] the “1 μM relative fluorescence intensity” value was 98.36 and the “10 μM relative fluorescence intensity” value was 109.72.

In the case of CCN(C(=O)C1CCCC1)c1cc(-c2ccc(N3CCC(N)CC3)nc2)cc(C(=O)NCc2c(C)cc(C)[nH]c2=O)c1C [Compound 37, 5-(6-(4-aminopiperidin-1-yl)pyridin-3-yl)-N-((4,6-dimethyl-2-oxo-1,2-dihydropyridin-3-yl)methyl)-3-(N-ethylcyclopentanecarboxamido)-2-methylbenzamide], the “1 μM relative fluorescence intensity” value is reported as 163.93 and the “10 μM relative fluorescence intensity” value is reported as 345.23.

With CCN(C(=O)C1CCCC1)c1cc(-c2ccc(C(=O)N3CCOCC3)cc2)cc(C(=O)NCc2c(C)cc(C)[nH]c2=O)c1C [Compound 20, N-((4,6-dimethyl-2-oxo-1,2-dihydropyridin-3-yl)methyl)-5-(N-ethylcyclopentanecarboxamido)-4-methyl-4′-(morpholin-4-carbonyl)-[1,1′-diphenyl]-3-carboxamide] the “1 μM relative fluorescence intensity” value was 193, the “3 μM relative fluorescence intensity” value was 213 and the “10 μM relative fluorescence intensity” value was 227.

In the case of CCN(C(=O)C1CCCC1)c1cc(-c2ccc(OCCCN3CCOCC3)c(F)c2)cc(C(=O)NCc2c(C)cc(C)[nH]c2=O)c1C [Compound 42, N-((4,6-dimethyl-2-oxo-1,2-dihydropyridin-3-yl)methyl)-5-(N-ethylcyclopentanecarboxamido)-3′-fluoro-4-methyl-4′-(3-morpholinopropoxy)-[1,1′-diphenyl]-3-carboxamide], the “1 μM relative fluorescence intensity” value is reported as 179.84 and the “10 μM relative fluorescence intensity” value is reported as 234.50.

For CCN(C(=O)C1CC2C=CC1C2)c1cc(-c2ccc(CN3CCOCC3)cc2)cc(C(=O)NCc2c(C)cc(C)[nH]c2=O)c1C [Compound 60, (1R,4R)—N-(5-(((4,6-dimethyl-2-oxo-1,2-dihydropyridin-3-yl)methyl)carbamoyl-4-methyl-4′-(morpholinomethyl)-[1,1′-diphenyl]-3-yl)-N-ethylbicyclo[2.2.1]hept-5-en-2-carboxamide], the “1 μM relative fluorescence intensity” value was 143, the “3 μM relative fluorescence intensity” value was 140 and the “10 μM relative fluorescence intensity” value was 171.

In the case of CCN(C(=O)C1CCCC1)c1cc(-c2ccc(C#N)c(F)c2)cc(C(=O)NCc2c(C)cc(C)[nH]c2=O)c1C [Compound 19, 4′-cyano-N-((4,6-dimethyl-2-oxo-1,2-dihydropyridin-3-yl)methyl)-5-(N-ethylcyclopentanecarboxamido)-3′-fluoro-4-methyl-[1,1′-diphenyl]-3-carboxamide], the “1 μM relative fluorescence intensity” value is reported as 189, the “3 μM relative fluorescence intensity” value is reported as 228 and the “10 μM relative fluorescence intensity” value is reported as 310.

With CCN(C(=O)C1CCCC1)c1cc(-c2ccc(C(C)=O)s2)cc(C(=O)NCc2c(C)cc(C)[nH]c2=O)c1C [Compound 43, 5-(5-acetylthiophene-2-yl)-N-((4,6-dimethyl-2-oxo-1,2-dihydropyridin-3-yl)methyl)-3-(N-ethylcyclopentanecarboxamido)-2-methylbenzamide] the “1 μM relative fluorescence intensity” value was 147.30 and the “10 μM relative fluorescence intensity” value was 235.05.

With CCN(C(=O)C1CCCC1)c1cc(-c2ccc(OCCCN3CCOCC3)cc2C)cc(C(=O)NCc2c(C)cc(C)[nH]c2=O)c1C [Compound 45, N-((4,6-dimethyl-2-oxo-1,2-dihydropyridin-3-yl)methyl)-5-(N-ethylcyclopentanecarboxamido)-2′,4-methyl-4′-(3-morpholinopropoxy)-[1,1′-diphenyl]-3-carboxamide] the “1 μM relative fluorescence intensity” value was 189.05 and the “10 μM relative fluorescence intensity” value was 218.76.

With CCN(C(=O)C1CCCC1)c1cc(-c2ccc(CN3CCNC[C@H]3CO)cc2)cc(C(=O)NCc2c(C)cc(C)[nH]c2=O)c1C [Compound 35] the “1 μM relative fluorescence intensity” value was 83.82 and the “10 μM relative fluorescence intensity” value was 123.19.

CCN(C(=O)C1CCCC1)c1cc(-c2ccc(OCCCN3CCOCC3)cc2)cc(C(=O)NCc2c(C)cc(C)[nH]c2=O)c1C [Compound 30, N-((4,6-dimethyl-2-oxo-1,2-dihydropyridin-3-yl)methyl)-5-(N-ethylcyclopentanecarboxamido)-4-methyl-4′-(3-morpholinopropoxy)-[1,1′-diphenyl]-3-carboxamide] was tested, and the “1 μM relative fluorescence intensity” value was 253.44 and the “10 μM relative fluorescence intensity” value was 231.21.

In the case of CCN(C(=O)C1CCCC1)c1cc(-c2ccc(Oc3ccccc3)cc2)cc(C(=O)NCc2c(C)cc(C)[nH]c2=O)c1C [Compound 41, N-((4,6-dimethyl-2-oxo-1,2-dihydropyridin-3-yl)methyl)-5-(N-ethylcyclopentanecarboxamido)-4-methyl-4′-phenoxy-[1,1′-diphenyl]-3-carboxamide], the “1 μM relative fluorescence intensity” value is reported as 156.04 and the “10 μM relative fluorescence intensity” value is reported as 183.38.

CCN(C(=O)C1CCCC1)c1cc(-c2ccc(OCCCN3CCOCC3)cc2F)cc(C(=O)NCc2c(C)cc(C)[nH]c2=O)c1C [Compound 44, N-((4,6-dimethyl-2-oxo-1,2-dihydropyridin-3-yl)methyl)-5-(N-ethylcyclopentanecarboxamido)-2′-fluoro-4-methyl-4′-(3-morpholinopropoxy)-[1,1′-diphenyl]-3-carboxamide] was tested, and the “1 μM relative fluorescence intensity” value was 181.04 and the “10 μM relative fluorescence intensity” value was 217.02.

In the case of CCN(C(=O)C1CCCC1)c1cc(-c2ccc(N3CCN(C(C)C)CC3)nc2)cc(C(=O)NCc2c(C)cc(C)[nH]c2=O)c1C [Compound 18, N-((4,6-dimethyl-2-oxo-1,2-dihydropyridin-3-yl)methyl)-3-(N-ethylcyclopentanecarboxamido)-5-(6-(4-isopropylpiperazin-1-yl)pyridin-3-yl)-2-methylbenzamide], the “1 μM relative fluorescence intensity” value is reported as 289, the “3 μM relative fluorescence intensity” value is reported as 356 and the “10 μM relative fluorescence intensity” value is reported as 423.
